Laboratory results taken from EP2776398B1, “SUBSTITUTED PYRAZOLYL-BASED UREA DERIVATIVES AS VANILLOID RECEPTOR LIGANDS” (Medifron DBT Inc., priority 2011, dated 2013).

Each molecule was assayed against T1, vanilloid receptor 1 (VR1/TRPV1 receptor) (Homo sapiens, UniProt Q8NER1) (assay: Functional testing on vanilloid receptor 1: FLIPR Ca2+ influx assay against capsaicin (Cap) in transfected CHO K1 cells (pharmacological method II)). Details: @ 1µM; human VR1 in CHO K1 cells; capsaicin; relative to maximum inhibition with 10 µM capsazepine; read-out: inhibition (as a percentage), printed in column (f) Ki (human being) [nM] Cap.
T1 construct: expressed in transfected cells; host or cells: CHO K1 cells (ECACC), stably transfected
Type: cell-based
Design: key to (f) Ki (human being) [nM] Cap: agonist classification: AG = agonist
Description: […]
Wherever Ki is given: 100 nM capsaicin.

T1 sequence (Q8NER1 whole entry): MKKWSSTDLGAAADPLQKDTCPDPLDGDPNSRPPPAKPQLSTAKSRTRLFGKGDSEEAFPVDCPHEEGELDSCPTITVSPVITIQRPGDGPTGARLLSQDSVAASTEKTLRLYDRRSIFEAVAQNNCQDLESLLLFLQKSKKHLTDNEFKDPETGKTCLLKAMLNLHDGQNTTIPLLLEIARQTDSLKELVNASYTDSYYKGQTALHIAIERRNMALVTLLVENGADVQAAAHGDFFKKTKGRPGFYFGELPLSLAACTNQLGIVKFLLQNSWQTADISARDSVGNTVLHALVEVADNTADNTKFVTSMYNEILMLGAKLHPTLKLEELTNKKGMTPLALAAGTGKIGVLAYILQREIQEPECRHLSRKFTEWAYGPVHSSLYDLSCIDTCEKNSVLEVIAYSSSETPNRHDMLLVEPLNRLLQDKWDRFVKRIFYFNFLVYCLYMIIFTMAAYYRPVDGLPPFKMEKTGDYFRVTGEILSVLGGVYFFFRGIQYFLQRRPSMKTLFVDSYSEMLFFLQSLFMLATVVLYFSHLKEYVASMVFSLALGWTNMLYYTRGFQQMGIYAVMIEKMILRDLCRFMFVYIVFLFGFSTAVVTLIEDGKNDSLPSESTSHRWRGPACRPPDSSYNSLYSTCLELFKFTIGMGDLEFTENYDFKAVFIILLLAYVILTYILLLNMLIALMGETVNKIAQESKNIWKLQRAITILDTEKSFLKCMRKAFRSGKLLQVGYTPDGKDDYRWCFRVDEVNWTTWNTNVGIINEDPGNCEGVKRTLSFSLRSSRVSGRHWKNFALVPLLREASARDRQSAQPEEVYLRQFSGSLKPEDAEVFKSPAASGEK

| inhibition at 1 µM [%] | SMILES |
| --- | --- |
| 23 | CC(C)(C)c1cc(CNC(=O)Nc2ccc(COCCO)c(F)c2)n(-c2ccc(F)cc2)n1 [A134, 1-[[5-tert-Butyl-2-(4-fluorophenyl)-2H-pyrazol-3-yl]-methyl]-3-[3-fluoro-4-(2-hydroxy-ethoxy-methyl)-phenyl]-urea] |
| 15 | CCOc1cc(C)cc(-n2nc(C(F)(F)F)cc2CNC(=O)Nc2ccc(COCCO)c(F)c2)c1 [A135, 1-[[2-(3-Ethoxy-5-methyl-phenyl)-5-(trifluoromethyl)-2H-pyrazol-3-yl]-methyl]-3-[3-fluoro-4-(2-hydroxy-ethoxy-methyl)-phenyl]-urea] |

Same assay, conditions: @ 5µM; human VR1 in CHO K1 cells; capsaicin; relative to maximum inhibition with 10 µM capsazepine; read-out: inhibition (as a percentage), printed in column (f) Ki (human being) [nM] Cap

| inhibition at 5 µM [%] | SMILES |
| --- | --- |
| 48 | O=C(NCc1cc(C(F)(F)F)nn1-c1ccc(F)c(F)c1)Nc1ccc(COCCO)c(F)c1 [A132, 1-[[2-(3,4-Difluoro-phenyl)-5-(trifluoromethyl)-2H-pyrazol-3-yl]-methyl]-3-[3-fluoro-4-(2-hydroxy-ethoxy-methyl)-phenyl]-urea] |
| 39 | CC(C)(C)c1cc(CNC(=O)Nc2ccc(C(CO)CO)c(F)c2)n(-c2cccc(Cl)c2)n1 [A152, 1-[[5-tert-Butyl-2-(3-chlorophenyl)-2H-pyrazol-3-yl]-methyl]-3-[3-fluoro-4-[2-hydroxy-1-(hydroxymethyl)-ethyl]-phenyl]-urea] |
| 50 | O=C(NCc1cc(C(F)(F)F)nn1-c1cccc(Cl)c1)Nc1ccc(C(CO)CO)c(F)c1 [A153, 1-[[2-(3-Chlorophenyl)-5-(trifluoromethyl)-2H-pyrazol-3-yl]-methyl]-3-[3-fluoro-4-[2-hydroxy-1-(hydroxymethyl)-ethyl]-phenyl]-urea] |
| 26 | CC(CO)(CO)c1ccc(NC(=O)NCc2cc(C(F)(F)F)nn2-c2cccc(Cl)c2)cc1 [A155, 1-[[2-(3-Chlorophenyl)-5-(trifluoromethyl)-2H-pyrazol-3-yl]-methyl]-3-[4-[2-hydroxy-1-(hydroxymethyl)-1-methyl-ethyl]-phenyl]-urea] |
| 35 | CC(C)(C)c1cc(CNC(=O)Nc2ccc(C(C)(CO)CO)cc2)n(-c2cccc(Cl)c2)n1 [A157, 1-[[5-tert-Butyl-2-(3-chlorophenyl)-2H-pyrazol-3-yl]-methyl]-3-[4-[2-hydroxy-1-(hydroxymethyl)-1-methyl-ethyl]-phenyl]-urea] |
| 13 | O=C(NCc1cc(C(F)(F)F)nn1-c1cccc(Cl)c1)Nc1ccc(C(O)(CO)CO)cc1 [A158, 1-[[2-(3-Chlorophenyl)-5-(trifluoromethyl)-2H-pyrazol-3-yl]-methyl]-3-[4-[1,2-dihydroxy-1-(hydroxymethyl)-ethyl]-phenyl]-urea] |
| 24 | CC(C)(C)c1cc(CNC(=O)Nc2ccc(C(O)(CO)CO)cc2)n(-c2cccc(Cl)c2)n1 [A159, 1-[[5-tert-Butyl-2-(3-chlorophenyl)-2H-pyrazol-3-yl]-methyl]-3-[4-[1,2-dihydroxy-1-(hydroxymethyl)-ethyl]-phenyl]-urea] |

Same assay, conditions: human VR1 in CHO K1 cells; AG printed instead of a Ki

| (f) Ki (human being) [nM] Cap: agonist classification | SMILES |
| --- | --- |
| AG | CC(C(=O)NCc1cc(C(C)(C)C)nn1-c1cccc(Cl)c1)c1ccc(CCO)c(F)c1 (centres unmarked) [A139, N-[[5-tert-Butyl-2-(3-chlorophenyl)-2H-pyrazol-3-yl]-methyl]-2-[3-fluoro-4-(2-hydroxy-ethyl)-phenyl]-propionamide] |
| AG | CC(C)(C)c1cc(CNC(=O)Nc2ccc(CCO)c(F)c2)n(-c2cccc(Cl)c2)n1 [A140, 1-[[5-tert-Butyl-2-(3-chlorophenyl)-2H-pyrazol-3-yl]-methyl]-3-[3-fluoro-4-(2-hydroxy-ethyl)-phenyl]-urea] |
| AG | CC(C(=O)NCc1cc(C(C)(C)C)nn1-c1cccc(Cl)c1)c1ccc(C(O)CO)c(F)c1 (centres unmarked) [A145, N-[[5-tert-Butyl-2-(3-chlorophenyl)-2H-pyrazol-3-yl]-methyl]-2-[4-(1,2-dihydroxy-ethyl)-3-fluoro-phenyl]-propionamide] |
| AG | CC(C(=O)NCc1cc(C(C)(C)C)nn1-c1cccc(Cl)c1)c1ccc(C(O)CO)cc1 (centres unmarked) [A147, N-[[5-tert-Butyl-2-(3-chlorophenyl)-2H-pyrazol-3-yl]-methyl]-2-[4-(1,2-dihydroxy-ethyl)-phenyl]-propionamide] |

Same assay, conditions: read-out: (f) Ki (human being) [nM] Cap

| Ki [nM] | SMILES |
| --- | --- |
| 40 | O=C(NCc1cc(C(F)(F)F)nn1-c1cccc(Cl)c1)Nc1ccc(COCCO)c(F)c1 [A127, 1-[[2-(3-Chlorophenyl)-5-(trifluoromethyl)-2H-pyrazol-3-yl]-methyl]-3-[3-fluoro-4-(2-hydroxy-ethoxy-methyl)-phenyl]-urea] |
| 67 | COCCOCc1ccc(NC(=O)NCc2cc(C(F)(F)F)nn2-c2cccc(Cl)c2)cc1F [A128, 1-[[2-(3-Chlorophenyl)-5-(trifluoromethyl)-2H-pyrazol-3-yl]-methyl]-3-[3-fluoro-4-(2-methoxy-ethoxy-methyl)-phenyl]-urea] |
| 43 | CC(C)(C)c1cc(CNC(=O)Nc2ccc(COCCO)c(F)c2)n(-c2cccc(Cl)c2)n1 [A129, 1-[[5-tert-Butyl-2-(3-chlorophenyl)-2H-pyrazol-3-yl]-methyl]-3-[3-fluoro-4-(2-hydroxy-ethoxy-methyl)-phenyl]-urea] |
| 47 | O=C(NCc1cc(C(F)(F)F)nn1-c1ccc(F)c(Cl)c1)Nc1ccc(COCCO)c(F)c1 [A130, 1-[[2-(3-Chloro-4-fluoro-phenyl)-5-(trifluoromethyl)-2H-pyrazol-3-yl]-methyl]-3-[3-fluoro-4-(2-hydroxy-ethoxy-methyl)-phenyl]-urea] |
| 56 | O=C(NCc1cc(C(F)(F)F)nn1-c1cccc(F)c1)Nc1ccc(COCCO)c(F)c1 [A131, 1-[3-Fluoro-4-(2-hydroxy-ethoxy-methyl)-phenyl]-3-[[2-(3-fluorophenyl)-5-(trifluoromethyl)-2H-pyrazol-3-yl]-methyl]-urea] |
| 12 | O=C(NCc1cc(C(F)(F)F)nn1-c1cccc(Cl)c1Cl)Nc1ccc(COCCO)c(F)c1 [A133, 1-[[2-(2,3-Dichloro-phenyl)-5-(trifluoromethyl)-2H-pyrazol-3-yl]-methyl]-3-[3-fluoro-4-(2-hydroxy-ethoxy-methyl)-phenyl]-urea] |
| 40 | CC(C(=O)NCc1cc(C(F)(F)F)nn1-c1cccc(F)c1)c1ccc(CCO)c(F)c1 (centres unmarked) [A136, 2-[3-Fluoro-4-(2-hydroxy-ethyl)-phenyl]-N-[[2-(3-fluorophenyl)-5-(trifluoromethyl)-2H-pyrazol-3-yl]-methyl]-propionamide] |
| 0.6 | CC(C)c1cccc(-n2nc(C(F)(F)F)cc2CNC(=O)C(C)c2ccc(CCO)c(F)c2)c1 (centres unmarked) [A137, 2-[3-Fluoro-4-(2-hydroxy-ethyl)-phenyl]-N-[[2-(3-isopropyl-phenyl)-5-(trifluoromethyl)-2H-pyrazol-3-yl]-methyl]-propionamide] |
| 8 | CC(C(=O)NCc1cc(C(F)(F)F)nn1-c1cccc(Cl)c1)c1ccc(CCO)c(F)c1 (centres unmarked) [A138, N-[[2-(3-Chlorophenyl)-5-(trifluoromethyl)-2H-pyrazol-3-yl]-methyl]-2-[3-fluoro-4-(2-hydroxy-ethyl)-phenyl]-propionamide] |
| 26 | O=C(NCc1cc(C(F)(F)F)nn1-c1cccc(Cl)c1)Nc1ccc(CCO)c(F)c1 [A141, 1-[[2-(3-Chlorophenyl)-5-(trifluoromethyl)-2H-pyrazol-3-yl]-methyl]-3-[3-fluoro-4-(2-hydroxy-ethyl)-phenyl]-urea] |
| 13 | CC(C(=O)NCc1cc(C(F)(F)F)nn1-c1cccc(Cl)c1)c1ccc(C(O)CO)cc1 (centres unmarked) [A146, N-[[2-(3-Chlorophenyl)-5-(trifluoromethyl)-2H-pyrazol-3-yl]-methyl]-2-[4-(1,2-dihydroxy-ethyl)-phenyl]-propionamide] |
| 4 | CC(C(=O)NCc1cc(C(F)(F)F)nn1-c1cccc(Cl)c1)c1ccc(C(O)CO)c(F)c1 (centres unmarked) [A148, N-[[2-(3-Chlorophenyl)-5-(trifluoromethyl)-2H-pyrazol-3-yl]-methyl]-2-[4-(1,2-dihydroxy-ethyl)-3-fluoro-phenyl]-propionamide] |
| 19 | CC(C)(C)c1cc(CNC(=O)Nc2ccc(C(O)CO)c(F)c2)n(-c2cccc(Cl)c2)n1 (centres unmarked) [A150, 1-[[5-tert-Butyl-2-(3-chlorophenyl)-2H-pyrazol-3-yl]-methyl]-3-[4-(1,2-dihydroxy-ethyl)-3-fluoro-phenyl]-urea] |
| 62 | O=C(NCc1cc(C(F)(F)F)nn1-c1cccc(Cl)c1)Nc1ccc(C(O)CO)c(F)c1 (centres unmarked) [A151, 1-[[2-(3-Chlorophenyl)-5-(trifluoromethyl)-2H-pyrazol-3-yl]-methyl]-3-[4-(1,2-dihydroxy-ethyl)-3-fluoro-phenyl]-urea] |
| 117 | CC(CO)(CO)c1ccc(NC(=O)NCc2cc(C(F)(F)F)nn2-c2cccc(Cl)c2)cc1F [A154, 1-[[2-(3-Chlorophenyl)-5-(trifluoromethyl)-2H-pyrazol-3-yl]-methyl]-3-[3-fluoro-4-[2-hydroxy-1-(hydroxymethyl)-1-methyl-ethyl]-phenyl]-urea] |
| 84 | CC(C)(C)c1cc(CNC(=O)Nc2ccc(C(C)(CO)CO)c(F)c2)n(-c2cccc(Cl)c2)n1 [A156, 1-[[5-tert-Butyl-2-(3-chlorophenyl)-2H-pyrazol-3-yl]-methyl]-3-[3-fluoro-4-[2-hydroxy-1-(hydroxymethyl)-1-methyl-ethyl]-phenyl]-urea] |
